Measured values: patent US20230218639A1, “USE OF OXYGENATED CHOLESTEROL SULFATES FOR TREATING NEUROLOGICAL CONDITIONS, NEURODEGENERATIVE DISEASES, AND ADDICTION” (Durect Corporation, priority 2020, published 2023)

Key:
DNMT1 = DNMT1 (Homo sapiens, UniProt P26358); test: DNMT1 activity assay (Poly(dI-dC) substrate, ^3H-SAM); assay type: biochemical; conditions: for EC50: read-out: EC50, activation of DNMT-1
Experimental: (§1) For the DNMT1 activity assay, the substrate solution, 0.001 mg/ml Poly(dI-dC):Poly(dI-dC) in 50 mM Tris-HCl, pH 7.5, 50 mM NaCl, 5 mM EDTA, 5 mM DTT, 1 mM PMSF, 5% glycerol, 0.01% Brij35, 1% DMSO was used. For the DNMT3a/3b activity assay, 0.0075 mg/ml Lambda DNA in 50 mM Tris-HCl, pH 7.5, 50 mM NaCl, 5 mM EDTA, 5 mM DTT, 1 mM PMSF, 5% glycerol, 1% DMSO, was used. The indicated DNMT1, DNMT3a, or DNMT3b was added to the appropriate substrate solution and gently mixed. […] The mixtures were first incubated for 15 min, then ^3H-SAM was added to the reaction mixture to initiate the reaction, and the mixture was incubated for 60 min at 30° C. Following incubation, the reaction mixture was finally transferred to filter-paper for detection of radioactivity counts.

DNMT1/3a/3b = test: Enzyme kinetic study, DNMT1/3a/3b activities overall; assay type: biochemical; conditions: for effect on enzymatic activities: controls
Experimental: as §1

DNMT3a = DNMT3a (Homo sapiens, UniProt Q9Y6K1); test: DNMT3a activity assay (Lambda DNA substrate, ^3H-SAM); assay type: biochemical
Chain of DNMT3a (Q9Y6K1 whole entry, looked up): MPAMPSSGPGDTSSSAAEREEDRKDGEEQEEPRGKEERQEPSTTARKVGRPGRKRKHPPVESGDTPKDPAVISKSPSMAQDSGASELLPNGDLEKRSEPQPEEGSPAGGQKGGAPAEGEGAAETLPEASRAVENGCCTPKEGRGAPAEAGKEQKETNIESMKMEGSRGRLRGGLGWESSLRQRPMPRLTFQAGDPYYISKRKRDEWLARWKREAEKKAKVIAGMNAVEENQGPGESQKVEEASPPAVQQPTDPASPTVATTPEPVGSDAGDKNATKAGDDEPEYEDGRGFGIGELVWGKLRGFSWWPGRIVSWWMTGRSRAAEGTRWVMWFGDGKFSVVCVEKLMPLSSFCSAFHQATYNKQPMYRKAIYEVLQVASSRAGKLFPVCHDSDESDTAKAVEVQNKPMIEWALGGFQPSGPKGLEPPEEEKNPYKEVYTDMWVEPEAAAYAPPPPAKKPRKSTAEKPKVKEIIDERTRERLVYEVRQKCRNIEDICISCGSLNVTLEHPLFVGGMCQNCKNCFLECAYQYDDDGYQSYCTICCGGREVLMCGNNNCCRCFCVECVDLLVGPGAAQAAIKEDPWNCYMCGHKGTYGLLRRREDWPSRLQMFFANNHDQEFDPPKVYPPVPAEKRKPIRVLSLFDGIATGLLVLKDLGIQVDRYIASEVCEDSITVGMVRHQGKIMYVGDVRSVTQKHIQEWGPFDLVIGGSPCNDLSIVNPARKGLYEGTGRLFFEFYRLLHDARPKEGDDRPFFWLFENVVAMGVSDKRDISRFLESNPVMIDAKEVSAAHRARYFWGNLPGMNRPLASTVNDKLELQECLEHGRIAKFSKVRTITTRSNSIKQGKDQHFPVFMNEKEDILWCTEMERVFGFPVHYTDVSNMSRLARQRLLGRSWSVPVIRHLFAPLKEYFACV
Experimental: as §1

DNMT3b = DNMT3b (Homo sapiens, UniProt Q9UBC3); test: DNMT3b activity assay (Lambda DNA substrate, ^3H-SAM); assay type: biochemical
Experimental: as §1

[1] = Metabolite profiling of plasma, urine, feces, intravenous dose; assay type: in vivo, Sprague Dawley rats; conditions: intravenous 10 mg/kg
Experimental: Nine male Sprague Dawley rats (Group 1) were designated for the pharmacokinetic phase, 3 male Sprague Dawley rats (Group 2) for the excretion mass balance phase, and 7 male Sprague Dawley rats (Group 3) and 9 male Long Evans rats (Group 4) for the tissue distribution phase. All animals received a single intravenous dose of [^14C]-25HC3S at 10 mg/kg and a target radioactivity of 225 μCi/kg. Blood samples were collected from all Group 1 animals at approximately 0.083, 0.25, 0.5, 1, 2, 4, 8, 12, 24, 48, and 72 hours post-dose. Urine and feces were collected from all Group 2 animals periodically through 168 hours post-dose. […] Following blood collection, animals were euthanized by CO2 inhalation and carcasses frozen in a dry ice/hexane bath for processing by quantitative whole body autoradiography. Whole blood, plasma, urine, feces, cage rinse, and cage wash were analyzed for total radioactivity by liquid scintillation counting.

[2] = Metabolite profiling of plasma and feces, oral dose; assay type: in vivo, rats
Experimental: Radiolabeled components in plasma and feces extracts were profiled and identified using radio-high performance liquid chromatography (HPLC) and high performance liquid chromatography/mass spectrometry (HPLC/MS) methods.
Plasma pools were prepared for Group 1 (75 mg/kg, [^14C]-25HC3S) samples collected at 2, 4, and 6 hours post-dose. […] One metabolite M29 was identified as 25-hydroxycholesterol with 37% ROI and a concentration of 1233 ng-equiv./g.
Feces pools were prepared for Group 2 (75 mg/kg, [^14C]-25HC3S) samples collected from 0 to 24, 24 to 48, 48 to 72, 72 to 96, 96 to 120, 120 to 144, and 144 to 168 hours post-dose. A total of eleven metabolites were identified. None of the metabolites were present at ≥5% of dose. Metabolites present at 2-5% of dose were M1 (4.5% of total dose and 1%-69% ROI), M3 (4.6% of total dose and 1%-44% ROI), M4 (2.0% of total dose and 0%-10% ROI), M8 (3.1% of total dose and 1%-46% ROI), […], and M30 (3.3% of total dose and 0%-5% ROI).

[3] = Sprague Dawley, rat, in vivo, po, 75 mg/kg

Chain of DNMT1 (P26358 whole entry): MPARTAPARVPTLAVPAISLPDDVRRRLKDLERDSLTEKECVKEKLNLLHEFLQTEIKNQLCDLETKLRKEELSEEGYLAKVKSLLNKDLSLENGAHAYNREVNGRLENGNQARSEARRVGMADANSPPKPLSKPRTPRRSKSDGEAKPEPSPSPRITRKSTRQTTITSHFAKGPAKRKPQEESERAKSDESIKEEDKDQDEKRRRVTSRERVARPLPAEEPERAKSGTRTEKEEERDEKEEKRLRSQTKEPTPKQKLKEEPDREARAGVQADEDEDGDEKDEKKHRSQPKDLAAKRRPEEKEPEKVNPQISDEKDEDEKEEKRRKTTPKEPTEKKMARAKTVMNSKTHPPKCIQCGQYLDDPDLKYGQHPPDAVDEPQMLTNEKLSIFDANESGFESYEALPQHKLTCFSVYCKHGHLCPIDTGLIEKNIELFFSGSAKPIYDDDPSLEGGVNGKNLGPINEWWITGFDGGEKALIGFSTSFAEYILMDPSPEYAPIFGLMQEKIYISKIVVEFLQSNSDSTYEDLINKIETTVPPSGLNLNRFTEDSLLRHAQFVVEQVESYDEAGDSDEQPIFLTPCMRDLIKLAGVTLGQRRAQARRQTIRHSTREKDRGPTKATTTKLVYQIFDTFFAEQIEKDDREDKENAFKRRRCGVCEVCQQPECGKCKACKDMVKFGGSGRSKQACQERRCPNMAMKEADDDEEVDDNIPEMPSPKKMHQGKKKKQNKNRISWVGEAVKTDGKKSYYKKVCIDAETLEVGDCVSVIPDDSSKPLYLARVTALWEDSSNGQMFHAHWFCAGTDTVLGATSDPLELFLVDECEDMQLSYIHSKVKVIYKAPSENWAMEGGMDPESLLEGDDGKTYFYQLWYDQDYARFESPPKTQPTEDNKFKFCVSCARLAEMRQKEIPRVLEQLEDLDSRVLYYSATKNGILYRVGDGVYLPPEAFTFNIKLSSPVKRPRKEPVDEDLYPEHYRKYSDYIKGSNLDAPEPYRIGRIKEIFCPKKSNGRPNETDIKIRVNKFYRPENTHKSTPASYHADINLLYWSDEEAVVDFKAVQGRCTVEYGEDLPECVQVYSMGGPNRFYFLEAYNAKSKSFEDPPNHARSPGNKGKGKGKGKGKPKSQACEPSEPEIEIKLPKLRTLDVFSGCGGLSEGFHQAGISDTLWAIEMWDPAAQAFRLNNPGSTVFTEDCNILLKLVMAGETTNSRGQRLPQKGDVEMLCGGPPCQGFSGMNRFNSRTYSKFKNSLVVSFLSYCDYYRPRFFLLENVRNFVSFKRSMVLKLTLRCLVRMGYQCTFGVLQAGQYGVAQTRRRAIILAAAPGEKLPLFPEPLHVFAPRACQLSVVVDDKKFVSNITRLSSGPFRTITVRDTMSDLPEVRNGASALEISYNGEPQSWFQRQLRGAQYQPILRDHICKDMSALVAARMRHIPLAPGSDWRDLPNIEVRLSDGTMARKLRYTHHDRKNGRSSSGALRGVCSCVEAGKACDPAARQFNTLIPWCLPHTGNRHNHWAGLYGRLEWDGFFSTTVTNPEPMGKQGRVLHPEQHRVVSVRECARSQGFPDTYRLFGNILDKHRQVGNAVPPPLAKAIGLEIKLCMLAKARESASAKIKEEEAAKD

For C[C@@H](CO)CCC[C@@H](C)[C@H]1CC[C@H]2[C@@H]3CC=C4C[C@@H](O)CC[C@]4(C)[C@H]3CC[C@]12C [27HC, 27-Hydroxycholesterol], the EC50 (DNMT1) was 33 µM and the “effect on other enzymes” value (DNMT1/3a/3b; enzymes other than DNMT-1) was “no effect”.
CC(CO)CCC[C@@H](C)[C@H]1CC[C@H]2[C@@H]3CC=C4C[C@@H](OS(=O)(=O)O)CC[C@]4(C)[C@H]3CC[C@]12C (stereo partly drawn) [27HC3S, 5-cholesten-3β, 27-diol 3-sulfate] gave an IC50 (DNMT1) of 3.58 µM, an IC50 (DNMT3a) of 8.88 µM and an IC50 (DNMT3b) of 2.68 µM.
With Nc1ncnc2c1ncn2[C@@H]1O[C@H](CSCC[C@H](N)C(=O)O)[C@@H](O)[C@H]1O [SAH, S-adenosyl homocysteine] the inhibition at 1 µM (DNMT1; read-out: inhibition of DNMT1 activity) was 95%.
With desmosterol sulfate the “detection in plasma, urine, or feces samples” value [1] was “Neither desmosterol sulfate nor 25-hydroxycholesterol was detected” and the “presence in plasma or feces samples” value ([2]; oral 75 mg/kg) was “not found”.
With C[C@H](CCCC(C)(C)O)[C@H]1CC[C@H]2[C@@H]3CC=C4C[C@@H](O)CC[C@]4(C)[C@H]3CC[C@]12C [25HC, 25-Hydroxycholesterol, reference compound] the “activation of DNMT-1 activity” value (DNMT1) was 8 fold, the EC50 (DNMT1) was 3.5 µM and the “detection in plasma, urine, or feces samples” value [1] was “Neither desmosterol sulfate nor 25-hydroxycholesterol was detected”. The “% of total dose in feces” value [2, 3] was 1.9 % of total dose, the ROI in feces [2, 3] was 0-2% and the “relative observed intensity (ROI) in plasma” value ([2]; Sprague Dawley, rat, in vivo, po, 75 mg/kg, 2 h) was 37%.
In the case of CC(C)CCC[C@@H](C)[C@H]1CC[C@H]2[C@@H]3CC=C4C[C@@H](O)CC[C@]4(C)[C@H]3CC[C@]12C [Xol, Cholesterol], the “effect on enzymatic activities” value (DNMT1/3a/3b) is reported as “did not significantly affect”.
With CC(C)CCC[C@@H](C)[C@H]1CC[C@H]2[C@@H]3CC=C4C[C@@H](OS(=O)(=O)O)CC[C@]4(C)[C@H]3CC[C@]12C [Xol3S, 5-cholesten-3β-ol, 3-sulfate, reference compound] the IC50 (DNMT3a) was 82 µM and the “effect on enzymatic activities” value (DNMT1/3a/3b) was “did not significantly affect”.
